These are literature values, as cited in patent US10456383B2, “Targeted approach in the management of Epidermolysis bullosa” (The Board of Trustees of the Leland Stanford Junior …, priority 2017, dated 2019).

The conditions of data set [1]: topical formulations, all cases; standard serum levels required for immunosuppression 5-15 ng/ml.
For data set [2] the following is noted: ointment plasticized base containing no water (PCCA).

As for `CO[C@H]1C[C@@H]2CC[C@@H](C)[C@@](O)(O2)C(=O)C(=O)N2CCCC[C@H]2C(=O)O[C@H]([C@H](C)C[C@@H]2CC[C@@H](O)[C@H](OC)C2)CC(=O)[C@H](C)/C=C(\C)[C@@H](O)[C@@H](OC)C(=O)[C@H](C)C[C@H](C)/C=C/C=C/C=C/1C` [Sirolimus], the “systemic level of rapamycin” value in data set [1] is reported as “less than 2 ng/ml”. The sirolimus stability entry in data set [2] was “at least 6 months”.
